# Laboratory results as given in patent US20040214158A1, “Treatment of human papillomavirus (hpv)-infected cells” (priority 2000, published 2004).
# What was measured:
# [1] = system: untransfected cell lines; assay: TUNEL staining of untransfected cell lines; format: cell-based; details: 20.0 μg/ml, six to eight days (data not shown)
# From the text: (§1) The DeadEnd Colorimetric Apoptosis Detection System (Promega, Wis.) is a modified TUNEL (TdT-mediated dUTP Nick-End Labeling) assay in which the enzyme Terminal deoxynucleotidyl Transferase (TdT) incorporates biotinylated nucleotides at the 3′-OH DNA ends (1, 20). Streptavidin horseradish-peroxidase is then bound to the biotinylated nucleotides, which are detected by hydrogen peroxide and diaminobenzidine (DAB), a stable chromogen. Using this procedure, apoptotic nuclei stained dark brown when visualized under a light microscope.
# [2] = system: CaSki cells; assay: TUNEL apoptosis detection in transfected CaSki cells; format: cell-based, human
# From the text: as §1
# [3] = system: CaSki cells; assay: MTS cell proliferation assay, GCV/ACV on transfected CaSki cells; details: for effect on cell viability: CaSki cells mock-transfected or transfected with control plasmid pNSGL0; for growth inhibition: CaSki cells transfected with HPV 16 LCR-driven HSV 1-TK plasmid, 20-30 μg/ml for 6-8 days
# Procedure: All transfections were performed by calcium phosphate mediated transfection using the Profection Mammalian Transfection Systems (Promega, Wis.) according to the manufacturer's instructions. Cells were seeded at a density of 2×10^5 cells in each well in two mls of DMEM and grown to 50-60% confluence. One μg of plasmid DNA was used for transfecting each cell line. The calcium phosphate-DNA mix was overlaid on the cells for four to six hours and then replaced by two mls of complete medium. For mock-transfections, no DNA was added to the calcium phosphate transfection reagent. To measure promoter activity with a standard luciferase assay (Promega, Wis.) the transfected cells were harvested after 24-48 hours. To analyze HSV 1-TK gene expression by RT-PCR, the transfected cells were harvested 48-60 hours after transfection.
# The CaSki, SiHa, HSC3 and HeLa cell lines were transfected with the pNSGLTK-8 or pNSGL0 plasmids or mock transfected with no plasmid. […] The absorbance at 490 nm is a measure of the number of living cells in the culture. Percent survival was calculated as follows: [formula]
# [4] = system: CaSki cells; assay: Confocal microscopy of HSV1-TK protein and PI nuclear staining in transfected CaSki cells; format: cell-based, human; details: CaSki cells transfected with pNSGLTK-8; 20 ug/ml GCV for 2 days
# Procedure: CaSki cells were transfected with HPV16 LCR driven HSV1-TK construct (pNSGLTK-8). After 48 hours, cell were fixed and HSV-TK protein was detected using polyclonal rabbit anti-HSV1-TK antibody and FITC-conjugated goat anti-rabbit secondary antibody. The nuclear staining was done with propidium iodide. The cells were examined by confocal microscopy.
# Cell were fixed and HSV1-TK protein was detected using polyclonal rabbit anti-HSV1-TK antibody and FITC-conjugated goat anti-rabbit secondary antibody. The nuclear staining was done with propidium iodide. The cells were examined by confocal microscopy.
# [5] = system: HSC3 cells; assay: GCV cytotoxicity on transfected HSC3 cells; format: cell-based, human; details: HSC3 cells transfected with pNSGLTK-8; different concentrations, 6 days
# Procedure: (§2) Percent survival was calculated as follows: [formula]
# [6] = system: Human oral squamous cell carcinoma cell, SSC9; assay: GCV cytotoxicity on transfected SSC9 cells; format: cell-based; details: SSC9 cells transfected with pNSGLTK-8; different concentrations, 6 days
# From the text: (§3) To test the specificity of the methods described herein, an HPV positive cell line (CaSKi) and four HPV-negative cell lines were transfected with the plasmid plasmid pNSGLTK-8 described herein.
# [7] = system: VERO—African Green Monkey kidney cell line; assay: GCV cytotoxicity on transfected VERO cells; format: cell-based; details: VERO cells transfected with pNSGLTK-8; different concentrations, 6 days
# From the text: as §3
# [8] = system: HeLa cells; assay: GCV killing of transfected HeLa cells; format: cell-based, human; details: HeLa cells transfected with pNSGLTK-8; 20.0 μg/ml, two weeks (data not shown)
# Procedure: as §2
# [9] = system: SiHa cells; assay: TUNEL apoptosis detection in transfected SiHa cells; format: cell-based, human; details: SiHa cells transfected with pNSGLTK-8; 20.0 μg/ml GCV, eight to ten days
# From the text: as §1
# [10] = system: SiHa cells; assay: MTS cell proliferation assay, GCV on transfected SiHa cells; format: cell-based, human; details: SiHa cells transfected with pNSGLTK-8, 20.0 μg/ml
# Procedure: as §2
# [11] = taken orally by patients, clinical trials (Sugawara et al. 2000); cited from earlier work
smiles,measurement,setting,value
"Nc1nc2c(ncn2COCCO)c(=O)[nH]1 [ACV, acyclovir]",apoptotic cells (TUNEL staining),[1],did not show an increase in apoptotic cells
same,"apoptosis (TUNEL staining, morphology)","[2]; cells transfected with pNSGLTK-8, 20.0 μg/ml ACV, six days (FIG. 12: CaSki)",Typical apoptotic morphology of TUNEL-stained nuclei
same,effect on cell viability,[3],refractory
same,growth inhibition,[3],approximately 80%
same,concentration showing cytotoxic effects,"[3]; CaSki cells transfected with pNSGLTK-8, ten days exposure",30000 ng/mL
"Nc1nc(O)c2ncn(COC(CO)CO)c2n1 [GCV, ganciclovir]",apoptotic cells (TUNEL staining),[1],did not show an increase in apoptotic cells
same,nuclear staining by PI,[4],majority of nuclei look disrupted due to early apoptosis
same,cytotoxic effect,[5],did not show any significant cytotoxic effect
same,cytotoxic effect,[6],did not show any significant cytotoxic effect
same,cytotoxic effect,[7],did not show any significant cytotoxic effect
same,cells killed,[8],more than 90%
same,"apoptosis (TUNEL staining, morphology)","[2]; CaSki cells transfected with pNSGLTK-8, 20.0 μg/ml GCV, four days",characteristic apoptotic morphology
same,cytotoxicity,"[3]; CaSKi cells transfected with pNSGLTK-8, 6 days exposure",cytotoxicity is restricted to HPV positive cell line CaSKi only
same,effect on cell viability,[3],No significant effect on cell viability
same,growth inhibition,[3],approximately 80%
same,"effect on cell viability, dose dependence","[3]; CaSki cells transfected with pNSGLTK-8, 0, 5, 10, 20 μg/ml GCV, six days",dose-dependent effect
same,cells killed,"[3]; CaSki cells transfected with pNSGLTK-8, 20.0 μg/ml, 10 days",more than 95%
same,maximal cell death,"[3]; CaSki cells transfected with pNSGLTK-8, 20.0 μg/ml, six days",approximately 80%
same,"apoptosis (TUNEL staining, morphology)",[9],significant cell death associated with typical apoptotic morphology
same,cells killed,[10]; six days,approximately 42%
same,cells killed,[10]; two weeks (data not shown),more than 90%
CC(C)[C@H](N)C(=O)OCC(CO)OCn1cnc2c(=O)nc(N)[nH]c21 (stereo partly shown) [valganciclovir],bioavailability,[11],enhance the bioavailability of ganciclovir
